In patent publication US9115122B2, “Non-ATP dependent inhibitors of extracellular signal-regulated kinase (ERK)” (UNIVERSITY OF MARYLAND, BALTIMORE, priority 2012, dated 2015):

Tests used:
[1] = target: ERK2 wild type (WT) (Rattus norvegicus (Rat), UniProt P63086); experiment: Fluorescence quenching (FQ) binding affinity; settings: 1 nM to 20 μM test compound
[2] = target: ERK2 T157A (Rattus norvegicus (Rat), UniProt P63086, T157A); experiment: Fluorescence quenching (FQ) binding affinity; settings: read-out: KD T157A (Site1)
ERK2 T157A, sequence (P63086 whole entry T157A): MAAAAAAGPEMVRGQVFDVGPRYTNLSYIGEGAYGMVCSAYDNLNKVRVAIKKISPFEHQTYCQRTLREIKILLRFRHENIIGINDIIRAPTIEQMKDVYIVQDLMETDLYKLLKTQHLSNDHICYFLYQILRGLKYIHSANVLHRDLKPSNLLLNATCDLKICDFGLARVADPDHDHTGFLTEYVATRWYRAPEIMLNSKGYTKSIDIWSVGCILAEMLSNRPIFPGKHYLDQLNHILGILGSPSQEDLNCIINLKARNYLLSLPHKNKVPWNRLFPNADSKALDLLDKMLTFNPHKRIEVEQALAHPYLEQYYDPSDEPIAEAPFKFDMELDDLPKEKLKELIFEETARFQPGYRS

[3] = target: ERK2 D319N (Rattus norvegicus (Rat), UniProt P63086, D319N); experiment: Fluorescence quenching (FQ) binding affinity; settings: read-out: KD D319N (Site1)
ERK2 D319N, sequence (P63086 whole entry D319N): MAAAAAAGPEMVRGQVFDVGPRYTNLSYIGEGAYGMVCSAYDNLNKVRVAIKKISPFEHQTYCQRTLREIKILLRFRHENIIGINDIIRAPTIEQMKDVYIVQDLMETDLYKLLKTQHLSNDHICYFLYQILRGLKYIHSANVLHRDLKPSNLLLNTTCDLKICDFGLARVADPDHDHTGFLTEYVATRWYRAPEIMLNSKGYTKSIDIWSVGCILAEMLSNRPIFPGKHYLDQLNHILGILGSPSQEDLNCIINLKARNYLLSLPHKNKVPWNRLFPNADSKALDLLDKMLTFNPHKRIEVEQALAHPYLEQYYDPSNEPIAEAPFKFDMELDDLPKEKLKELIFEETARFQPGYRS

[4] = target: ERK2 T157A/D319N (Rattus norvegicus (Rat), UniProt P63086, D319N/T157A); experiment: Fluorescence quenching (FQ) binding affinity; settings: read-out: KD T157A/D319N (Site1)
ERK2 T157A/D319N, sequence (P63086 whole entry T157A/D319N): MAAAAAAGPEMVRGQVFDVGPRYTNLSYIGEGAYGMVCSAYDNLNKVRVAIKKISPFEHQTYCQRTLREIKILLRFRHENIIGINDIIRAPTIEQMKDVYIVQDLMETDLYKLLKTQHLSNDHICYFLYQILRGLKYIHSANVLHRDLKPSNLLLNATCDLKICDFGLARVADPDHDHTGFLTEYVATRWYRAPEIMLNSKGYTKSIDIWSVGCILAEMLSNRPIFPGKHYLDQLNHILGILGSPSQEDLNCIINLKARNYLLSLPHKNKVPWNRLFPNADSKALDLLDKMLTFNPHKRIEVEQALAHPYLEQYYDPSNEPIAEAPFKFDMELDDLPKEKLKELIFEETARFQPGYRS

[5] = tested on: A375 melanoma cells; experiment: Cell proliferation WST-1 assay, single dose (Example 4); format: cell-based; settings: 100 μM, 48 hours
How it was run: (§1)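 Seed ~5000 cells/well; recover 16-20 h; treat with compound 48 h; add WST-1; read A450, subtract A650; normalize to DMSO-only cells.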

[6] = tested on: HL-60 leukemic cells; experiment: as above; format: cell-based; settings: 100 μM, 48 hours
How it was run: as §1

[7] = tested on: HeLa cervical carcinoma cells; experiment: as above; format: cell-based; settings: 100 μM, 48 hours
How it was run: as §1

[8] = tested on: Jurkat T-cell leukemia cells; experiment: as above; format: cell-based; settings: 100 μM, 48 hours
How it was run: as §1

[9] = tested on: RPMI-7951 melanoma cells; experiment: as above; format: cell-based; settings: 100 μM, 48 hours
How it was run: as §1

[10] = tested on: SK-MEL-28 melanoma cells; experiment: as above; format: cell-based; settings: 100 μM, 48 hours
How it was run: as §1

[11] = tested on: A375 melanoma cells; experiment: Dose-response growth inhibition (GI50) of select compounds; format: cell-based; settings: Homo sapiens, A-375, 48 h, two days
Protocol: (§2) An example of the dose response curve for compound 30h and the BRaf inhibitor PLX4032 for inhibiting the growth of melanoma cell lines is shown in FIG. 14. […] A summary of GI50 values for select compounds along with comparisons to know ERK pathway inhibitors in various cell lines is shown in Table 13. […] First, thiazolidinedione compounds have been identified to be selective inhibitors of cancer cell lines containing activated ERK signaling. Second, changes in the 4-ethoxyphenyl component of the parent compound 76 improve selectivity and potency for inhibiting melanoma cell growth. Third, compound 30h is a potent inhibitor of melanoma cell lines that have become resistant to the clinically relevant BRaf and MEK inhibitors. […] Lastly, 30h is as potent as the ATP-competitive pyrazolopyridazinamine ERK inhibitor (FR180204) in preventing melanoma cell proliferation and provides an alternative non-ATP-dependent approach to target cancer cells that are dependent on active ERK signaling.
(§3) Melanoma cells (A375, SK-MEL-28, and RPMI7951) were seeded at a density of 5,000 per well in 96-well plate. After overnight incubation, cells were treated with varying doses of PLX4032 (A) or 31h (B) for two days. Cell viability was determined by the addition of Cell Titer-Blue Reagent (20 μL/well) followed by 2 hours of incubation at 37° C. after which fluorescence was recorded (555/585 nm). Cell viability was expressed as percentage of vehicle control and data represent the average of three individual experiments.

[12] = tested on: RPMI7951 melanoma cells; experiment: as above; format: cell-based; settings: Homo sapiens, RPMI-7951, 48 h, two days
Protocol: as §2, §3

[13] = tested on: SK-MEL-28 melanoma cells; experiment: as above; format: cell-based; settings: Homo sapiens, SK-MEL-28, 48 h, two days
Protocol: as §2, §3

[14] = tested on: HeLa cells; experiment: as above; format: cell-based; settings: Homo sapiens, HeLa
[15] = tested on: Jurkat cells; experiment: as above; format: cell-based; settings: Homo sapiens, Jurkat
[16] = tested on: activator protein-1 (AP-1) promoter; experiment: AP-1 promoter luciferase assay, HeLa cells (Example 4); format: cell-based; settings: Homo sapiens, EGF 25 ng/mL, read-out: estimated IC50 AP-1 promoter activity
Protocol: (§4) HeLa cells were seeded in 24-well plates (4×10^4 cells/well) and incubated 18 hours prior to achieve ˜60-70% confluent. Cells were transfected with activator protein-1 (pAP1(PMA)-TA-Luc; Clontech) or the serum response element (pGL4.33-SRE; Promega) luciferase reporter plasmids (250 ng/well) using Lipofectamine™ (Invitrogen). After 16 hours, cells were treated with increasing amount of compounds as indicated for 20 minutes, followed by stimulation with EGF (25 ng/mL) for 4.5 hr. The luciferase activity in the cell extracts was determined with a Dual Luciferase Assay System (Promega) according to the manufacturer's instructions. Luciferase activities were monitored with a Lumat LB 9507 luminometer (Berthold Technology) and data were normalized to the amount of protein in each sample.

[17] = tested on: serum response element (SRE); experiment: SRE promoter luciferase assay, HeLa cells (Example 4); format: cell-based; settings: Homo sapiens, EGF 25 ng/mL, read-out: estimated IC50 SRE promoter activity
Protocol: as §4

[18] = tested on: A549 lung carcinoma cells; experiment: Colony formation assay; format: cell-based; settings: Homo sapiens, read-out: IC50 growth inhibition, colony formation, A549
Protocol: (§5) We have successfully used computer-aided drug design (CADD) to search for low-molecular-weight docking domain inhibitors of ERK. One of the compounds, identified as 76, binds ERK2 with a Kd value of 5 μM and blocks phosphorylation of the downstream ERK targets RSK-1 and Elk-1. Moreover, 76 inhibited growth of HeLa cervical carcinoma and A549 lung carcinoma cells as assessed by colony formation assay in a dose dependent manner with IC50 values of ˜20 μM.

[19] = tested on: HeLa cervical carcinoma cells; experiment: Colony formation assay; format: cell-based; settings: Homo sapiens, read-out: IC50 growth inhibition, colony formation, HeLa
Protocol: as §5

ERK2 wild type (WT), sequence (P63086 whole entry): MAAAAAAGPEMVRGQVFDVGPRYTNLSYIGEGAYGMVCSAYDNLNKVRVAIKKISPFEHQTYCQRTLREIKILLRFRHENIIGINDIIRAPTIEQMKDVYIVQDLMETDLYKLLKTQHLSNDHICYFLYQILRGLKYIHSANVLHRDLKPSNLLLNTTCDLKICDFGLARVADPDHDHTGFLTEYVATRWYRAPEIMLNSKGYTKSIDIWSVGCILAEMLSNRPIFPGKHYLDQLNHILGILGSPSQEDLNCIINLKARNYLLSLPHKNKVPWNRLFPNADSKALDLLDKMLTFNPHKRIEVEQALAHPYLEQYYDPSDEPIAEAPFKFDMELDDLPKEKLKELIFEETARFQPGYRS

CCOc1ccc(/C=C2\SC(=O)N(CCN)C2=O)cc1 [Compound 76, (Z)-3-(2-aminoethyl)-5-(4-ethoxybenzylidene)thiazolidine-2,4-dione]
Kd [1]: 5 µM
Kd [2]: 6.1 ± 0.6 µM
Kd [3]: 7 ± 1 µM
Kd [4]: 6.4 ± 0.3 µM
Cell Viability (% of Vehicle) A375 [5]: 2.1 ± 2 % of Vehicle
Cell Viability (% of Vehicle) HL-60 [6]: 4.4 ± 1 % of Vehicle
Cell Viability (% of Vehicle) HeLa [7]: 53 ± 3 % of Vehicle
Cell Viability (% of Vehicle) Jurkat [8]: 59 ± 5 % of Vehicle
Cell Viability (% of Vehicle) RPMI-7951 [9]: 0.3 ± 0.02 % of Vehicle
Cell Viability (% of Vehicle) SK-MEL-28 [10]: 11 ± 7 % of Vehicle
GI50 [11]: 29 µM
GI50 [12]: 46 µM
GI50 [13]: 34 µM
GI50 [14]: > 100 µM
GI50 [15]: > 100 µM
IC50 [16]: ≤ 5 µM
IC50 [17]: ≤ 5 µM
IC50 [18]: ~20 µM
IC50 [19]: ~20 µM
